Patent publication US20080027088A1, “Imidazole-Based Hmg-Coa Reductase Inhibitors” (Warner-Lambert Company, LLC, priority 2004, published 2008)

Tests used:
[1] = tested on: ApoE KO mice fed a Western diet; test: Plasma total cholesterol and triglyceride, 12 weeks; type: in vivo; conditions: 0.3 mg/kg/day
Description: Animal experiments—Male C57BI/6J and ApoE KO mice on C57BI/6J background were obtained from the Jackson Laboratory (Bar Harbor, Me.) or Taconic (Germantown, N.Y.) (Plaque formation in ApoE KO mice is lipid-driven (A. S. Plump et al., Cell. 1992;71 (2):343-53)). Myriocin was mixed with Western diet containing 0.21% cholesterol and 21% fat. 8-12-week-old mice received 0.3 mg myriocin/kg/day for 12 weeks (Table 1). 10-12 week-old ApoE KO mice (n=8) were pre-fed a western diet for 2 weeks and mice received various concentrations of myriocin for 4 weeks in diet admix. Control groups consisted of ApoE KO mice fed normal chow or Western diet without myriocin, and normal chow-fed C57BI/6J mice. Body weight and chow feeding was measured every week to examine the food consumption. […]
Plasma lipids and serum amyloid A measurement—Mice were sacrificed by CO2 inhalation and blood was collected through cardiac puncture. Plasma concentrations of total cholesterol and triglyceride were determined enzymatically on a Cobas Mira Plus auto-analyzer using Cholesterol R1 and Triglycerides Reagent methods, respectively (Roche Diagnostics, Indiana, USA). Colormetric changes were measured at 500 nm. […] Cholesterol distribution among lipoproteins was determined by in-line post column analysis (K. A. Kieft, T. M. Bocan and B. R. Krause, J. Lipid Res. 1991; 32:859-66). […]
FIG. 7. […] Colormetric changes were measured at 500 nm. […]

[2] = tested on: ApoE KO mice fed a Western diet; test: Sphingomyelin in liver, plasma and aorta by LC/MS, 12 weeks; type: in vivo; conditions: 0.3 mg/kg/day
Text: Analysis of Sphingolipids and Phospholipids by LC/MS and HPLC-Total lipids were extracted by the modified method of Bligh-Dyer extraction (E. G. Bligh and W. J. Dyer, Can. J. Med. Sci. 1959;37:911-917; and D. K. Perry, A. Bielawska and Y. A. Hannun, Methods Enzymol. 2000;312:22-31). A Micromass (Waters Corp., Milford, Mass.) Quattro Ultima tandem quadrupole mass spectrometer with a standard Z-sprayTM ion source, set to electrospray positive ionization mode, with MassLynxTM version 3.5 operating software, was used for all quantitative determinations. Source conditions were typically as follows: capillary 3.5 kV, source temperature 110 degrees C., and desolvation temperature 325 degrees C. Multipliers were set to 650 V, and the dwell time for each analyte was 100 milliseconds. Precursor-to-product ion transitions were established through direct infusion of each compound into the mass spectrometer. The following ion transitions were used for quantification: sphingomyelin (704→184 m/z), sphinganine (302→284 m/z), ceramide (566→264 m/z) and psychosine (462→282 m/z) as an internal standard. For the instrument, at a collision cell pressure of 2×10^-3 mbar argon, cone and collision voltages were as follows: sphingomyelin (45V, 25 eV), sphinganine (45V, 15 eV), ceramide (45V, 25 eV) and psychosine (45V, 25 eV). The liquid chromatography system was composed of twin Shimadzu (Columbia, Md.) LC-10ADvp HPLC pumps with a SCL-10Avp controller (flow rate 0.2 mL/minute), and a LEAP Technologies (Carrboro, N.C.) CTC PAL autosampler. For the quantitative method, the analytical column was a Phenomenex (Torrance, Calif.) Polar-RP (2.0×150 mm, 4 μm) with a […] (Torrance, Calif.) MetaGuard Polaris C8 2.0 mm direct connect (5 μm) guard column. […] Lipid extracts were analyzed by HPLC and evaporative light scattering detector to determine plasma sphingomyelin and phosphatidylcholine (PC) levels (R. Homan and M.K. Anderson, J. Chromatogr. B. Biomed. Sci. Appl. 1998;708:21-6). […] Sphingomyelin levels in liver (A), plasma (B), and aorta (C) were determined by LC/MS. […]

CCCCCCC(=O)CCCCCC/C=C/C[C@@H](O)[C@H](O)[C@@](N)(CO)C(=O)O [myriocin]
plasma TG lowered [1]: 45% | plasma cholesterol lowered [1]: 41% | aorta SM levels decreased [2]: 20% | plasma SM lowered ([2]; Western diet-fed ApoE KO mice): 64% | SM accumulation in liver ([2]; vs Western diet-fed ApoE KO mice): lowered
